# Measured values taken from PubChem BioAssay (NCI).
#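 Exposure lasted 48 hours, with cells grown in 96-well plates and compounds tested at five concentrations. The concentration for 50% growth inhibition is given as GI50. At the TGI there is no net growth.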
# Tests used:
# Assay in all cases: growth of human tumour cells (NCI), 48 h
# [1] = test system: RPMI-8226 leukemia
# [2] = test system: COLO 205 colon
# [3] = test system: SF-295 CNS
# [4] = test system: M14 melanoma
# [5] = test system: HS 578T breast
# [6] = test system: TK-10 renal
# [7] = test system: SNB-75 CNS
# [8] = test system: NCI-H522 lung
# [9] = test system: EKVX NSCLC
# [10] = test system: HCT-15 colon
# [11] = test system: CCRF-CEM leukemia
# [12] = test system: SK-OV-3 ovarian
# [13] = test system: A498 renal
# [14] = test system: SK-MEL-2 melanoma
# [15] = test system: OVCAR-8 ovarian
# [16] = test system: NCI/ADR-RES ovarian
# [17] = test system: BT-549 breast
# [18] = test system: RXF 393 renal
# [19] = test system: ACHN renal
# [20] = test system: SW-620 colon
# [21] = test system: SK-MEL-5 melanoma
# [22] = test system: MOLT-4 leukemia
# [23] = test system: NCI-H460 lung
# [24] = test system: NCI-H23 lung
# [25] = test system: LOX IMVI melanoma
# [26] = test system: U251 CNS
# [27] = test system: HT29 colon
# [28] = test system: UO-31 renal
# [29] = test system: HOP-62 NSCLC
# [30] = test system: PC-3 prostate
# [31] = test system: SR leukemia
# [32] = test system: KM12 colon
# [33] = test system: HOP-92 NSCLC
# [34] = test system: OVCAR-5 ovarian
# [35] = test system: MALME-3M melanoma
# [36] = test system: MCF7 breast
# [37] = test system: OVCAR-4 ovarian
# [38] = test system: UACC-62 melanoma
# [39] = test system: HCT-116 colon
# [40] = test system: UACC-257 melanoma
# [41] = test system: HCC-2998 colon
# [42] = test system: SK-MEL-28 melanoma
# [43] = test system: NCI-H226 lung
# [44] = test system: SF-268 CNS
# [45] = test system: MDA-MB-435
# [46] = test system: HL-60(TB) leukemia
# [47] = test system: DU-145 prostate
# [48] = test system: K-562 leukemia
# [49] = test system: IGROV1 ovarian
# [50] = test system: MDA-MB-231 breast
# [51] = test system: T-47D breast
# [52] = test system: SF-539 CNS
# [53] = test system: OVCAR-3 ovarian
# [54] = test system: SNB-19 CNS
# [55] = test system: A549 NSCLC
# [56] = test system: 786-0 renal
smiles,measurement,setting,value
CCN(CC)c1ccc2c(c1)Oc1nc(N)c(C#N)c(N)c1C2Sc1ccc(SC)cc1 (configuration not stated),GI50,[1],2500 nM
same,TGI,[1],6560 nM
same,GI50,[2],1840 nM
same,TGI,[2],3550 nM
same,GI50,[3],1670 nM
same,TGI,[3],3120 nM
same,GI50,[4],1740 nM
same,TGI,[4],3470 nM
same,GI50,[5],2150 nM
same,TGI,[5],7100 nM
same,GI50,[6],2590 nM
same,TGI,[6],4100 nM
same,GI50,[7],1560 nM
same,TGI,[7],3170 nM
same,GI50,[8],2420 nM
same,TGI,[8],4310 nM
same,GI50,[9],528 nM
same,TGI,[9],1970 nM
same,GI50,[10],1590 nM
same,TGI,[10],3070 nM
same,GI50,[11],1270 nM
same,TGI,[11],5020 nM
same,GI50,[12],2160 nM
same,TGI,[12],3960 nM
same,GI50,[13],1880 nM
same,TGI,[13],3440 nM
same,GI50,[14],2480 nM
same,TGI,[14],5510 nM
same,GI50,[15],2080 nM
same,TGI,[15],4430 nM
same,GI50,[16],2390 nM
same,TGI,[16],6130 nM
same,GI50,[17],1420 nM
same,TGI,[17],2780 nM
same,GI50,[18],1660 nM
same,TGI,[18],3310 nM
same,GI50,[19],1680 nM
same,TGI,[19],3040 nM
same,GI50,[20],1880 nM
same,TGI,[20],3680 nM
same,GI50,[21],1650 nM
same,TGI,[21],3010 nM
same,GI50,[22],1330 nM
same,TGI,[22],4600 nM
same,GI50,[23],1800 nM
same,TGI,[23],3690 nM
same,GI50,[24],1580 nM
same,TGI,[24],3160 nM
same,GI50,[25],1390 nM
same,TGI,[25],2750 nM
same,GI50,[26],1350 nM
same,TGI,[26],2700 nM
same,GI50,[27],2330 nM
same,TGI,[27],4610 nM
same,GI50,[28],1510 nM
same,TGI,[28],2840 nM
same,GI50,[29],1760 nM
same,TGI,[29],3260 nM
same,GI50,[30],1410 nM
same,TGI,[30],2810 nM
same,GI50,[31],436 nM
same,TGI,[31],3870 nM
same,GI50,[32],1660 nM
same,TGI,[32],3460 nM
same,GI50,[33],1720 nM
same,TGI,[33],3430 nM
same,GI50,[34],2370 nM
same,TGI,[34],4750 nM
same,GI50,[35],2380 nM
same,TGI,[35],4720 nM
same,GI50,[36],1600 nM
same,TGI,[36],3650 nM
same,GI50,[37],1750 nM
same,TGI,[37],3400 nM
same,GI50,[38],1480 nM
same,TGI,[38],2960 nM
same,GI50,[39],1460 nM
same,TGI,[39],2810 nM
same,GI50,[40],3230 nM
same,TGI,[40],6220 nM
same,GI50,[41],1960 nM
same,TGI,[41],3470 nM
same,GI50,[42],2050 nM
same,TGI,[42],3910 nM
same,GI50,[43],1530 nM
same,TGI,[43],2890 nM
same,GI50,[44],1690 nM
same,TGI,[44],3440 nM
same,GI50,[45],1860 nM
same,TGI,[45],3580 nM
same,GI50,[46],1970 nM
same,TGI,[46],5150 nM
same,GI50,[47],1820 nM
same,TGI,[47],3210 nM
same,GI50,[48],2330 nM
same,TGI,[48],5690 nM
same,GI50,[49],1570 nM
same,TGI,[49],3370 nM
same,GI50,[50],1540 nM
same,TGI,[50],3070 nM
same,GI50,[51],1740 nM
same,TGI,[51],3940 nM
same,GI50,[52],1640 nM
same,TGI,[52],3000 nM
same,GI50,[53],1730 nM
same,TGI,[53],3170 nM
same,GI50,[54],1520 nM
same,TGI,[54],2900 nM
same,GI50,[55],1940 nM
same,TGI,[55],3500 nM
same,GI50,[56],1750 nM
same,TGI,[56],3190 nM
